Activity calls are given as the source filed them. No cut-off for these calls is given here.
Legend:
A549 [1] = assay: Induction of cell cycle arrest in human A549 cells assessed as accumulation of cells at G2/M phase at 2.5 uM incubated for 48 hrs by RNase/PI staining based flow cytometry analysis (reference value: 18.97%); format: functional
A549 [2] = assay: Induction of cell cycle arrest in human A549 cells assessed as accumulation of cells at S phase at 5 uM incubated for 48 hrs by RNase/PI staining based flow cytometry analysis (reference value: 26.01%); format: functional
A549 [3] = assay: Induction of apoptosis in human A549 cells assessed as total apoptotic cells at 5 uM incubated for 48 hrs by Annexin V-FITC/PI staining based flow cytometry analysis (reference value: 4.26%); format: functional
A549 [4] = assay: Induction of apoptosis in human A549 cells assessed as cell rounding at 2.5 to 10 uM incubated for 48 hrs by Hoechst 33342 staining based fluorescence microscopic analysis; format: functional; conditions: dose 2.5-10 µM
[5] = Drug recovery in mouse liver microsomes at 100 uM incubated for 60 mins in absence of NADPH by LC-MS/MS analysis; format: ADME, Microsome; conditions: read-out: Drug recovery
A549 [6] = assay: Induction of cell cycle arrest in human A549 cells assessed as accumulation of cells at S phase at 2.5 uM incubated for 48 hrs by RNase/PI staining based flow cytometry analysis (reference value: 26.01%); format: functional
A549 [7] = assay: Induction of apoptosis in human A549 cells assessed as dead cells at 10 uM incubated for 48 hrs by Annexin V-FITC/PI staining based flow cytometry analysis (reference value: 0.739%); format: functional
MV4-11 = assay: Antiproliferative activity against human MV4-11 cells expressing BAX assessed as cell growth inhibition incubated for 72 hrs by trypan blue cell counting analysis; format: functional
[8] = Drug recovery in human liver microsomes at 100 uM incubated for 60 mins in absence of NADPH by LC-MS/MS analysis; format: ADME, Microsome; conditions: read-out: Drug recovery
[9] = target: Apoptosis regulator BAX (Homo sapiens) (UniProt Q07812); assay: Activation of BAX in human A549 cells at 20 uM incubated for 24 hrs by NP-40 based immunoprecipitation analysis; format: cell-based; conditions: filed as activator
A549 [10] = assay: Induction of apoptosis in human A549 cells assessed as total apoptotic cells at 10 uM incubated for 48 hrs by Annexin V-FITC/PI staining based flow cytometry analysis (reference value: 4.26%); format: functional
A549 [11] = assay: Induction of apoptosis in human A549 cells assessed as late apoptotic cells at 10 uM incubated for 48 hrs by Annexin V-FITC/PI staining based flow cytometry analysis (reference value: 2.15%); format: functional
A549 [12] = assay: Antiproliferative activity against human A549 cells assessed as cell growth inhibition incubated for 72 hrs by MTT assay; format: functional
A549 [13] = assay: Induction of apoptosis in human A549 cells assessed as dead cells at 10 uM incubated for 48 hrs by Annexin V-FITC/PI staining based flow cytometry analysis (reference value: 0.535%); format: functional
A549 [14] = assay: Induction of cell cycle arrest in human A549 cells assessed as accumulation of cells at G2/M phase at 5 uM incubated for 48 hrs by RNase/PI staining based flow cytometry analysis (reference value: 18.97%); format: functional
Cytochrome P450 2C19 = Cytochrome P450 2C19 (Homo sapiens, UniProt P33261); assay: Inhibition of CYP2C19 in human liver microsomes using S-mephenytoin as substrate prewarmed for 10 mins followed by NADPH addition and measured after 10 mins by LC-MS/MS analysis
[15] = mouse, 1 h, 100 µM
A549 [16] = assay: Induction of apoptosis in human A549 cells assessed as formation of apoptotic bodies at 2.5 to 10 uM incubated for 48 hrs by Hoechst 33342 staining based fluorescence microscopic analysis; format: functional, cell-based; conditions: dose 2.5-10 µM
A549 [17] = assay: Induction of apoptosis in human A549 cells assessed as early apoptotic cells at 5 uM incubated for 48 hrs by Annexin V-FITC/PI staining based flow cytometry analysis (reference value: 1.09 %); format: functional
A549 [18] = assay: Induction of apoptosis in human A549 cells assessed as total apoptotic cells at 10 uM incubated for 48 hrs by Annexin V-FITC/PI staining based flow cytometry analysis (reference value: 2.86%); format: functional
[19] = target: Apoptosis regulator BAX (Homo sapiens) (UniProt Q07812); assay: Activation of BAX in human A549 cells assessed as increase in cytochrome-c release incubated for 24 hrs by Western blot analysis; format: cell-based; conditions: filed as activator, dose 5-40 µM
A549 [20] = assay: Induction of apoptosis in human A549 cells assessed as live cells at 5 uM incubated for 48 hrs by Annexin V-FITC/PI staining based flow cytometry analysis (reference value: 95.9 %); format: functional
A549 [21] = assay: Induction of cell cycle arrest in human A549 cells assessed as accumulation of cells at G0/G1 phase at 5 uM incubated for 48 hrs by RNase/PI staining based flow cytometry analysis (reference value: 54.82%); format: functional
NCI-H1581 = assay: Antiproliferative activity against human NCI-H1581 cells expressing BAX assessed as cell growth inhibition incubated for 72 hrs by MTT assay; format: functional
PC-3 = assay: Antiproliferative activity against human PC-3 cells assessed as cell growth inhibition incubated for 72 hrs by MTT assay; format: functional
A549 [22] = assay: Induction of apoptosis in human A549 cells assessed as dead cells at 5 uM incubated for 48 hrs by Annexin V-FITC/PI staining based flow cytometry analysis (reference value: 0.535%); format: functional
A549 [23] = assay: Induction of apoptosis in human A549 cells assessed as early apoptotic cells at 10 uM incubated for 48 hrs by Annexin V-FITC/PI staining based flow cytometry analysis (reference value: 0.708%); format: functional
HCT-116 = assay: Antiproliferative activity against human HCT-116 cells assessed as cell growth inhibition incubated for 72 hrs by MTT assay; format: functional
A549 [24] = assay: Induction of apoptosis in human A549 cells assessed as upregulation of BAX translocation at 20 uM incubated for 24 hrs by Western blot analysis; format: functional, cell-based
A549 [25] = assay: Inhibition of colony formation in human A549 cells at 3 uM incubated for 2 weeks by crystal violet staining based analysis relative to control; format: functional; conditions: A549, 336 h
A549 [26] = assay: Induction of apoptosis in human A549 cells assessed as early apoptotic cells at 10 uM incubated for 48 hrs by Annexin V-FITC/PI staining based flow cytometry analysis (reference value: 1.09 %); format: functional
MDA-MB-231 = assay: Antiproliferative activity against human MDA-MB-231 cells expressing BAX assessed as cell growth inhibition incubated for 72 hrs by MTT assay; format: functional
[27] = Metabolic stability in human liver microsomes assessed as parent compound remaining at 100 uM incubated for 60 mins in presence of NADPH by LC-MS/MS analysis
A549 [28] = assay: Induction of apoptosis in human A549 cells assessed as late apoptotic cells at 5 uM incubated for 48 hrs by Annexin V-FITC/PI staining based flow cytometry analysis (reference value: 2.52%); format: functional
[29] = target: Apoptosis regulator BAX (Homo sapiens) (UniProt Q07812); assay: Activation of BAX in human A549 cells assessed as protein translocation by measuring increase in BAX protein level in mitochondrial fraction incubated for 24 hrs by Western blot analysis; format: mitochondria; conditions: filed as activator, dose 5-40 µM

Apoptosis regulator BAX (Homo sapiens), sequence (Q07812 whole entry): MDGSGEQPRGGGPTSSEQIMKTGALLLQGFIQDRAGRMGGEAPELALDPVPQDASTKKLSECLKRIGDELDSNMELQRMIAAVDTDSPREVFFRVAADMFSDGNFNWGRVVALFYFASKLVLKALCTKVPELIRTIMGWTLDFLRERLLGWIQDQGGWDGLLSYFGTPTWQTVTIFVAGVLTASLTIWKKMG
Cytochrome P450 2C19, sequence (P33261 whole entry): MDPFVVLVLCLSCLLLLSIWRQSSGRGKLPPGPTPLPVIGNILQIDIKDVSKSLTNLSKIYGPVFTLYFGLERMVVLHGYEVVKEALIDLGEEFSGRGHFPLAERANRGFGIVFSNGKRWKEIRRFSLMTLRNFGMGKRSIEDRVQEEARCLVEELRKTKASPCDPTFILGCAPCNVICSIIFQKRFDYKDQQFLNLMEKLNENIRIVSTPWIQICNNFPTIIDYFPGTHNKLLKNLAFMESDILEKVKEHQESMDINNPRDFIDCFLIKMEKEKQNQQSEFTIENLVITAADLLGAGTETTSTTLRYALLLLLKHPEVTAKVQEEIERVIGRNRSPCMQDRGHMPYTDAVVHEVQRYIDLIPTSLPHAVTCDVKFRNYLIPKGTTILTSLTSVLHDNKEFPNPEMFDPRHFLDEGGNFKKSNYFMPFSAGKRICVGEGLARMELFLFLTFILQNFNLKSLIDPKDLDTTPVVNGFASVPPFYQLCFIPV

CN(C)C1CCN(C(=O)c2ccc(N3N=C(c4ccccc4)/C(=N/Nc4ccccc4)C3=O)cc2)CC1
Activity (A549 [1]): 16.48% | Activity (A549 [2]): 27.84% | Activity (A549 [3]): 15.43% | Activity (A549 [4]): Active | remaining at 1 h, 100 µM [5]: 96% | Activity (A549 [6]): 25.51% | Activity (A549 [7]): 0.535% | GI50 (MV4-11): 2840 nM | remaining at 1 h, 100 µM [8]: 102% | Activity [9]: Active | Activity (A549 [10]): 73.4% | Activity (A549 [11]): 22.5% | GI50 (A549 [12]): 2150 nM | Activity (A549 [13]): 0.583% | Activity (A549 [14]): 8.3% | IC50 (Cytochrome P450 2C19): > 50000 nM | CLH [15]: < 2.28 mL/h/kg | Activity (A549 [16]): Active | Activity (A549 [17]): 10.6% | Activity (A549 [18]): 93.7% | Activity [19]: Dose-Dependent Effect | Activity (A549 [20]): 84.2% | Activity (A549 [21]): 63.73% | GI50 (NCI-H1581): 2150 nM | GI50 (PC-3): 2500 nM | Activity (A549 [22]): 0.284% | Activity (A549 [23]): 71.2% | GI50 (HCT-116): 3310 nM | Activity (A549 [24]): Active | inhibition at 3 µM (A549 [25]): > 50% | Activity (A549 [26]): 55% | GI50 (MDA-MB-231): 3980 nM | remaining at 1 h, 100 µM [27]: 97.9% | Activity (A549 [28]): 4.83% | Activity [29]: Dose-Dependent Effect

From ChEMBL document CHEMBL5325413, “Optimization of BAX trigger site activator BTSA1 with improved antitumor potency and in vitro ADMET properties” (Eur J Med Chem, 2023)
